Key:
[1] = Compound was evaluated for its ability to mobilize calcium from [Ca(2+)]-preloaded SH-SY5Y cells permeabilised using saponin; format: functional, cell-based; details: Homo sapiens
[2] = Compound was evaluated for its ability to mobilize calcium in 1321NI cells; format: functional, cell-based
Homo sapiens [3] = species: Homo sapiens; assay: Compound was evaluated for the inhibition of [3H]- Ins(1,4,5)P3 dephosphorylation by human erythrocyte membrane Ins(1,4,5)P3 5-phosphatase; format: functional
[4] = target: Inositol 1,4,5-trisphosphate-gated calcium channel ITPR3 (Bos taurus, UniProt Q8WN95); assay: Compound was evaluated for its ability to displace [3H]Ins(1,4,5)P3 from membranes prepared from bovine adrenal corticles
[5] = Inhibition of Ins(1,4,5)P3 phosphorylation by rat brain homogenate; format: functional
[6] = Compound was evaluated for its ability to mobilize calcium from [Ca(2+)]-preloaded SH-SY5Y cells permeabilised using saponin; devoid of [Ca2+] mobilising activity; format: functional, cell-based, Homo sapiens
Rattus norvegicus = species: Rattus norvegicus; assay: Enzyme kinetics constant (Km value) was determined in rat brain homogenate […]; format: functional
Homo sapiens [7] = species: Homo sapiens; assay: Enzyme kinetics constant (Km value) was determined in human erythrocyte membrane […]; format: functional

Inositol 1,4,5-trisphosphate-gated calcium channel ITPR3, sequence (Q8WN95 whole entry): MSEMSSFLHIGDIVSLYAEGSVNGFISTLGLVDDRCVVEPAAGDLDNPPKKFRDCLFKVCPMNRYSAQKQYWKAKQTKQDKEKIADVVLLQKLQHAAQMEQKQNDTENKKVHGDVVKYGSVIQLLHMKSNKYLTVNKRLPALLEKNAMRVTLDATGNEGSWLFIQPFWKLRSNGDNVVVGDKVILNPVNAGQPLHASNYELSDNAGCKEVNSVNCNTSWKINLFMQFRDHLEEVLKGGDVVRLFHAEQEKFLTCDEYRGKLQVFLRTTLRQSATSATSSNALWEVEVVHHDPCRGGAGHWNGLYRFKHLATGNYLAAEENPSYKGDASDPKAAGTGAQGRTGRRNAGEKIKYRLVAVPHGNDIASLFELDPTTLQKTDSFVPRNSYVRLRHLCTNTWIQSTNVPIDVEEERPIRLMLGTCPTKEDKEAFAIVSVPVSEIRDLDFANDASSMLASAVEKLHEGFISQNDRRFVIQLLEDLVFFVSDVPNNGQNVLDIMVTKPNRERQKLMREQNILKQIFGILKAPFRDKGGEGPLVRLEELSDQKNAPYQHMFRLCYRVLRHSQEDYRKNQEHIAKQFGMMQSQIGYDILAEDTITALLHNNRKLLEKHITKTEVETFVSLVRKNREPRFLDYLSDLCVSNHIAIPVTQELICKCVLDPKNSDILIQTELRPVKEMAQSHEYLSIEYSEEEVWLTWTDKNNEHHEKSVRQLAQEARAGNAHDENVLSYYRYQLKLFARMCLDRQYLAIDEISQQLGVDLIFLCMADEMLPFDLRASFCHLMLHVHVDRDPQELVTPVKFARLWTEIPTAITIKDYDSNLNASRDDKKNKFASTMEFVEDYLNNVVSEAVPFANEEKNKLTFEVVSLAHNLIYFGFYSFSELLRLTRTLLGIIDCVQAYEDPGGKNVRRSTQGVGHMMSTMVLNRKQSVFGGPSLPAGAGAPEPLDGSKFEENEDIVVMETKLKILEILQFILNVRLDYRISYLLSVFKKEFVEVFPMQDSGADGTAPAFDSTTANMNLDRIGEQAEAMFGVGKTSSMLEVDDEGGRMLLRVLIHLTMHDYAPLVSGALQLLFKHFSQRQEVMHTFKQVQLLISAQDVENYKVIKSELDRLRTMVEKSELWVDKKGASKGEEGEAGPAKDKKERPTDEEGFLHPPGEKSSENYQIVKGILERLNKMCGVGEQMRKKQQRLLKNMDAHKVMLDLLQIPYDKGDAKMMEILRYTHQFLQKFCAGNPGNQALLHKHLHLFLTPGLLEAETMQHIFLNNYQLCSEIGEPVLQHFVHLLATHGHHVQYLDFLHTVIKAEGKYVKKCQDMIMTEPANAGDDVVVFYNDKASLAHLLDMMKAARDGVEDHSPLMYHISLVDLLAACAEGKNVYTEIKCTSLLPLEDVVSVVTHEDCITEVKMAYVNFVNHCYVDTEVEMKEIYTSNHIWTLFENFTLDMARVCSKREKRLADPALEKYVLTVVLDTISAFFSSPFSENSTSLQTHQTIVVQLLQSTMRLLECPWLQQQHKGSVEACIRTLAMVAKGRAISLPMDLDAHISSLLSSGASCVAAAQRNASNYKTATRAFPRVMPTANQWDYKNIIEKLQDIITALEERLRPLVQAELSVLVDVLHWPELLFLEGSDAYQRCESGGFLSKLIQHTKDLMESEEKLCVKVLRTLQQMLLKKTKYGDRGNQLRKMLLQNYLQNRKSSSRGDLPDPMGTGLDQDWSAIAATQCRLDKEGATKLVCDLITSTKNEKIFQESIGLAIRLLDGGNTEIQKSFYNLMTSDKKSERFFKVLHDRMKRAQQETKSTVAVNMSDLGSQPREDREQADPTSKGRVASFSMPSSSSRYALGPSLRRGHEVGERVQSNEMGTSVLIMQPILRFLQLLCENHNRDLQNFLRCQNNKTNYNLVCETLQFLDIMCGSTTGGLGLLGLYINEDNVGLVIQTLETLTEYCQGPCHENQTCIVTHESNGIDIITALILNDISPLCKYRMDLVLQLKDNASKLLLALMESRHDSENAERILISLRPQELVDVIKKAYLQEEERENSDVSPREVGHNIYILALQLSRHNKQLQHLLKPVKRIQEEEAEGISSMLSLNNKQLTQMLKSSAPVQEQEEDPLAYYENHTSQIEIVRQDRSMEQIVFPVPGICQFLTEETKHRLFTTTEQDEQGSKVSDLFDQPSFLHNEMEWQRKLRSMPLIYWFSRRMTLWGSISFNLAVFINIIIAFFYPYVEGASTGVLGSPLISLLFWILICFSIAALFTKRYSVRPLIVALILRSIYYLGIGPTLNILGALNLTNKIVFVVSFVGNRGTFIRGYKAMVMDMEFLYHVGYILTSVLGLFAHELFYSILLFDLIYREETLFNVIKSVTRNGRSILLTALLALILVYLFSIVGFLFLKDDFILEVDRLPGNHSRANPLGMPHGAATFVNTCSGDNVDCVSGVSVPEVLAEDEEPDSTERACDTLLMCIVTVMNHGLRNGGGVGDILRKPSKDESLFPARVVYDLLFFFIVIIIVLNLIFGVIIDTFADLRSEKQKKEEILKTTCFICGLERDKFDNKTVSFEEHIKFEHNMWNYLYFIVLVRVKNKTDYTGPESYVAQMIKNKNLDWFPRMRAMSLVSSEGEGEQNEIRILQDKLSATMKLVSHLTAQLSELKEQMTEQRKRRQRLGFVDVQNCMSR

Row | EC50 [1] | EC50 [2] | Ki (Homo sapiens [3]) | Ki [4] | Ki [5] | EC50 [6] | Km (Rattus norvegicus) | Km (Homo sapiens [7]) | Compound
1 | 2.1 µM | – | – | – | – | – | – | – | O=P(O)(O)O[C@H]1[C@H](O)[C@@H](OP(=O)(O)O)[C@H](OP(=O)(O)O)[C@@H](OP(=O)(O)O)[C@H]1O
2 | – | < 100 µM | 15.9 µM | < 3 µM | 100 µM | Not Active | – | – | O=C(OC1C(OP(=O)(O)O)C(OP(=O)(O)O)C(OC(=O)c2ccccc2)C(OP(=O)(O)O)C1OP(=O)(O)O)c1ccccc1 (centres undefined)
3 | 0.052 µM | – | – | – | – | – | 1.5 µM | 31.8 µM | O=P(O)(O)O[C@@H]1[C@H](O)[C@H](O)[C@@H](OP(=O)(O)O)[C@H](OP(=O)(O)O)[C@H]1O [INS(1,4,5)P3]

Reference: ChEMBL document CHEMBL1127008, “Synthesis of myo-inositol 1,2,4,5-tetrakisphosphate, a Ca2+-mobilising tetrakisphosphate with a potency similar to myo-inositol 1,4,5-trisphosphate” (Bioorg Med Chem Lett, 1993)
